# Results: patent US20150079000A1, “Labelled Quinoxaline Derivatives as Multimodal Radiopharmaceuticals and Their Precursors” (INSTITUT NATIONAL DE LA SANTET DE LA RECHERCHE MEDICALE, priority 2012, published 2015)
# Assays:
# B16BL6 tumour = assay: PET imaging in B16BL6 tumour bearing mice; assay type: in vivo, C57BL/6J mice; conditions: 1 h p.i., day-15
# Description: All our studies were performed in accordance with French and European Economic Community (86-609, EEC) guidelines for care of laboratory animals. Protocols were performed under the authorization of the French Direction des Services Veterinaires (authorization no. CE 86-12). Male C57BL/6J mice were originating from Charles River laboratories and maintained at 21° C. with a 12 h/12 h light/dark cycle, fed with a breeding diet (diet A04 from Safe, Villemoisson, France) and received water ad libitum. For transplantation B16BL6 cell suspension were grown in a monolayer culture to confluence, after which cells were trypsinized, washed with phosphate buffer saline (PBS) and they were resuspended in PBS. Mice were anesthetized by isoflurane (4% for induction and 2±0.5% for maintaining in oxygen flux) inhalation. The primary tumour model was induced by subcutaneous injection of 3×10^5 melanoma B16B16 cells in 0.1 mL on the right shoulder of mice.
# Whole-body PET scans were acquired 1 h after bolus injection of […] of the appropriate [^18F]-compound in a volume of 0.15 ml via the tail vein. Mice were anesthetized by intraperitoneal (i.p.) administration (200 μL/mouse) of a ketamine-xylazine mixture in saline: ketamine (100 mg/kg, Imalgene™, Rhône Mérieux, Lyon, France) and xylazine (10 mg/kg, Rompun™, Bayer, France) before radiotracer injection and imaged by using a small-animal PET device, eXplore Vista microPET instrument (GE Healthcare). PET images were acquired by using static mode during 20 min. The acquired data were reconstructed using the 2-Dimensional ordered-subsets expectation maximization (OSEM) algorithm and corrected from decay, scatter and randoms. No corrections were applied for partial volume or attenuation.
# Regional tracer uptake was quantified by standard region-of-interest (ROI) analysis with eXplore Vista software package. A manual 2D-ROI was drawn around the tumour in each slice where tumour was visible, and on several subsequent coronal planes containing muscle tissue at the forelimb. Results are expressed by percentage of injected dose per gram of tissue (% ID/g).
# PET imaging was performed 1 h post injection of tracers in B16BL6 tumour bearing mice at day-15 after tumours cell inoculation.
# A375 tumours = assay: PET imaging in A375 tumour bearing mice; assay type: in vivo, Swiss nudes mice; conditions: 1 h p.i.
# Description: (§1) Protocols were performed under the authorization of the French Direction des Services Veterinaires (authorization no. CE 86-12). Female Swiss nudes mice (6 weeks old) were originating from Charles River laboratories and maintained at 21° C. with a 12 h/12 h light/dark cycle, fed with a breeding diet (diet A04 from Safe, Villemoisson, France) and received water ad libitum. For transplantation cell suspension were grown in a monolayer culture to confluence, after which cells were trypsinized, washed with phosphate buffer saline (PBS) and they were resuspended in PBS. Mice were anesthetized by isoflurane (4% for induction and 2±0.5% for maintaining in oxygen flux) inhalation. The primary tumour model was induced by subcutaneous injection of 3×10^6 melanoma SKMEL-3 (pigmented cell line) or A375 (non-pigmented cell ligne) cells in 0.1 mL on the right shoulder of mice.
# (§2) Whole-body PET scans were acquired 1 h after bolus injection of 10 MBq of [^18F](1) in a volume of 0.15 ml via the tail vein. […]
# (§3) Regional tracer uptake was quantified by standard region-of-interest (ROI) analysis with eXplore Vista software package. […]
# [1] = [18F](1) stability study on ex vivo extracts; assay type: in vivo, mice
# Description: Six primary melanoma bearing mice were intravenously injected with 18 MBq of [^18F](1) and sacrificed 30 min, 1 h and 2 h after tracer injection. To determine the metabolic stability of [^18F](1), blood, tumour, eyes, liver and urine samples were collected. Blood was immediately centrifuged for 5 min at 3,000 rpm and plasma directly investigated by analytical HPLC. Other organs were pooled and homogenized using GentleMACS™ dissociator (Miltenyi Biotec, Bergisch Gladbach, Germany), suspended in 5 mL of methanol/NH4OH 99.8:0.2 and centrifuged for 5 min at 3,000 rpm. The extraction efficiency was determined by measuring the radioactivity of supernatants and precipitates. Supernatants were passed through a 0.22 μm Millipore filter and then concentrated to a volume between 200 and 500 μL before injection (duplicate) onto the analytical HPLC (Waters Symmetry® C18; Gradient elution: 60% to 90% MeOH (0.4% NH4OH) in water (0.4% NH4OH) (10 min), then 60% for 7 min).
# [2] = octanol/water (PBS buffer) partition coefficient (log D); assay type: physicochemical
# SKMEL-3 tumours = assay: PET imaging in SKMEL-3 tumour bearing mice; assay type: in vivo, Swiss nudes mice; conditions: 1 h p.i.
# Description: as §1, §2, §3
smiles,measurement,setting,value
CCN(CCNC(=O)c1cnc2cc(I)ccc2n1)CCOCCOCCOCC[18F] [[^18F](1)],eyes uptake,B16BL6 tumour,10.50±2.95 % ID/g
same,intestine uptake,B16BL6 tumour,4.07±1.39 % ID/g
same,muscles activity,B16BL6 tumour,1.37±0.37 % ID/g
same,pigmented spleen uptake,B16BL6 tumour,7.38±0.73 % ID/g
same,tumour uptake,B16BL6 tumour,14.33±2.11 % ID/g
same,tumour/muscle ratio,B16BL6 tumour,11.04±2.87
same,muscles activity,A375 tumours; A375 tumour bearing mice,1.14±0.28 % ID/g
same,tumour uptake,"A375 tumours; day-23, unpigmented A375 tumours",1.87±0.34 % ID/g
same,% unchanged [18F](1),"[1]; Black, Blood, 30 min",15.2%
same,% unchanged [18F](1),"[1]; Black, Eyes, 1 h",100%
same,% unchanged [18F](1),"[1]; Black, Eyes, 2 h",>99%
same,% unchanged [18F](1),"[1]; Black, Liver, 1 h",<10%
same,% unchanged [18F](1),"[1]; Black, Liver, 2 h",<20%
same,% unchanged [18F](1),"[1]; Black, Tumour, 1 h",>99%
same,% unchanged [18F](1),"[1]; Black, Tumour, 2 h",100%
same,% unchanged [18F](1),"[1]; Black, Urine, 1 h",0.1%
same,% unchanged [18F](1),"[1]; Black, Urine, 2 h",0.0%
same,% unchanged [18F](1),"[1]; Nude, Blood, 30 min",3.0%
same,% unchanged [18F](1),"[1]; Nude, Liver, 2 h",<10%
same,% unchanged [18F](1),"[1]; Nude, Tumour, 1 h",>99%
same,% unchanged [18F](1),"[1]; Nude, Tumour, 2 h",>99%
same,% unchanged [18F](1),"[1]; Nude, Urine, 1 h",2.7%
same,% unchanged [18F](1),"[1]; Nude, Urine, 2 h",1.4%
same,octanol/water (PBS buffer) partition coefficient (log D),[2],1.52±0.03
same,muscles activity,SKMEL-3 tumours; SKMEL-3 tumour bearing mice,1.34±0.42 % ID/g
same,tumour uptake,"SKMEL-3 tumours; day-27, pigmented SKMEL-3 tumours",4.65±1.07 % ID/g
